Measured values reported in ChEMBL document CHEMBL4699540, “Discovery and structure activity relationships of 7-benzyl triazolopyridines as stable, selective, and reversible inhibitors of myeloperoxidase” (Bioorg Med Chem, 2020).

What was measured:
[1] = Half life in CD-1 mouse at 3 mg/kg, po by LC/MS analysis; format: ADME, organism-based; conditions: in vivo
[2] = molecular target: T1, Methylated-DNA--protein-cysteine methyltransferase (Homo sapiens, UniProt P16455); experiment: Inhibition of human MGMT using 06-benzylguanine as substrate incubated for 30 mins by LC/MS analysis; conditions: 0.5 h
T1 sequence (P16455 whole entry): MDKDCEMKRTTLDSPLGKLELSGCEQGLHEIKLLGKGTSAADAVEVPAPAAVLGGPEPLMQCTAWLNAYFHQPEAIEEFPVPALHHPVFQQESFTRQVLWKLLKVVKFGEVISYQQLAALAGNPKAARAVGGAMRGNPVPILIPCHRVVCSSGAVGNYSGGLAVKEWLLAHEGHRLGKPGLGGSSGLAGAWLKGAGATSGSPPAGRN

[3] = test system: Neutrophil; conditions: Homo sapiens, time 5.0 min
[4] = molecular target: T2, Cytochrome P450 1A2 (Homo sapiens, UniProt P05177); experiment: Inhibition of CYP1A2 (unknown origin); format: ADME
T2 sequence (P05177 whole entry): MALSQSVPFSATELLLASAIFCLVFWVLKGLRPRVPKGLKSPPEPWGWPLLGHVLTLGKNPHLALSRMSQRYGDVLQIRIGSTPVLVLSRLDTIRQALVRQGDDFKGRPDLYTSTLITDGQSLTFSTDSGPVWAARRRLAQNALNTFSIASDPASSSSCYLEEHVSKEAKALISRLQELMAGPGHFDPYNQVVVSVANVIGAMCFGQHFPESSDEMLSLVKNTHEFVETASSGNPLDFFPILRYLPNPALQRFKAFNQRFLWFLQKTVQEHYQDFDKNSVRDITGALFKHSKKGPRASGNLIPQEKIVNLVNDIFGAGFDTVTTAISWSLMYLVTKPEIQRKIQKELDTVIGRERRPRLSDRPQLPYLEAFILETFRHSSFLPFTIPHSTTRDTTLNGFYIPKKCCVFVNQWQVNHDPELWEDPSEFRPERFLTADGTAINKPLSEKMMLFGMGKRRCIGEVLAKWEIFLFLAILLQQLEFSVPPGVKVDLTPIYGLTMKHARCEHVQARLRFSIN

[5] = molecular target: Cytochrome P450 3A4 (Homo sapiens, UniProt P08684); experiment: Inhibition of CYP3A4 (unknown origin); format: ADME
Chain of Cytochrome P450 3A4 (P08684 whole entry): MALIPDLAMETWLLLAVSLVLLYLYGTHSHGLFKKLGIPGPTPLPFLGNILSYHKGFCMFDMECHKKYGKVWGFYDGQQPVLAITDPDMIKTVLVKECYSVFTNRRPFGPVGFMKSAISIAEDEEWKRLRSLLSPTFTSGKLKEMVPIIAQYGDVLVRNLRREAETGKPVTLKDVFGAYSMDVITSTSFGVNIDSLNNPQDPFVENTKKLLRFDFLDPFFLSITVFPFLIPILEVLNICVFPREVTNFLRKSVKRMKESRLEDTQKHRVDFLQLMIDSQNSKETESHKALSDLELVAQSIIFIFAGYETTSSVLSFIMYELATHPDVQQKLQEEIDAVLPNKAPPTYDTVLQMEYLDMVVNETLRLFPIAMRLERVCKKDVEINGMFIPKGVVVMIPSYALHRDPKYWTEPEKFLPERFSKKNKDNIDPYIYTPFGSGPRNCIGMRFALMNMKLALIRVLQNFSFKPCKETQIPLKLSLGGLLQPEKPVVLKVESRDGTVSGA

[6] = Metabolic stability in mouse liver microsomes assessed as compound remaining; format: ADME, Microsome
[7] = molecular target: T3, Myeloperoxidase (Homo sapiens, UniProt P05164); experiment: Inhibition of recombinant human MPO incubated for 10 mins by amplex red dye based assay
T3 sequence (P05164 whole entry): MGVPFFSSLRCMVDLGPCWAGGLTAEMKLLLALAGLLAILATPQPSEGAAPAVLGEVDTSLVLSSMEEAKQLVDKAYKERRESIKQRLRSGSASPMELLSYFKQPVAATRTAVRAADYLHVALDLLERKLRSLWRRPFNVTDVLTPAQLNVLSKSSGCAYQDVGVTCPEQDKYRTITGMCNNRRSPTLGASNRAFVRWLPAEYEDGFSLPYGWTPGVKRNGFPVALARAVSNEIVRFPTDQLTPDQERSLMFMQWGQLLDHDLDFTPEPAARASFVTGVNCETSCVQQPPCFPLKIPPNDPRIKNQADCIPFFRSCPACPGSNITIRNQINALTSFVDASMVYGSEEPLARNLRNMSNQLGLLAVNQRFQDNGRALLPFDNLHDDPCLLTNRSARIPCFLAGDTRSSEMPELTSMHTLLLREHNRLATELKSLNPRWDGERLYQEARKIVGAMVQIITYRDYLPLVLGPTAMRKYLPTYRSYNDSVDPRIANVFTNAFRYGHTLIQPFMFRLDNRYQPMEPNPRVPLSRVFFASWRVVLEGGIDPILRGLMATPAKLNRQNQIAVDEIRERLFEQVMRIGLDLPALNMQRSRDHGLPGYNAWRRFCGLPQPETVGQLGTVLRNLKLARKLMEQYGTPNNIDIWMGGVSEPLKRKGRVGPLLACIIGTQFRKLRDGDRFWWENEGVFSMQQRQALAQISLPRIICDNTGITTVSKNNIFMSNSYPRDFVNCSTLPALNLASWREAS

[8] = molecular target: T4, Cytochrome P450 2B6 (Homo sapiens, UniProt P20813); experiment: Inhibition of CYP2B6 (unknown origin); format: ADME
T4 sequence (P20813 whole entry): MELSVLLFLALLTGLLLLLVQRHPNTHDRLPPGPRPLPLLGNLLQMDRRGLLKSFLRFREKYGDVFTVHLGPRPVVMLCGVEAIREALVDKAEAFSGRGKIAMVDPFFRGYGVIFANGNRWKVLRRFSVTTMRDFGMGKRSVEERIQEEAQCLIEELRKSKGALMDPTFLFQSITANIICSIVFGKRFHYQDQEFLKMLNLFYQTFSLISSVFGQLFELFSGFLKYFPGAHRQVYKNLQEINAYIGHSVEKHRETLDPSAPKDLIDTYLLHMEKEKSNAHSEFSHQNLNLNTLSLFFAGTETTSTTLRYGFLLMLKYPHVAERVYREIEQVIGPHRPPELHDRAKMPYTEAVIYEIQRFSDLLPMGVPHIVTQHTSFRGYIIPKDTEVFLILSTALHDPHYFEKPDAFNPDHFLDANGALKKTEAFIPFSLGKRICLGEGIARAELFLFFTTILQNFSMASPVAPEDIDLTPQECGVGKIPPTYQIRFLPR

[9] = Dissociation constant, pKa of the compound; format: physicochemical
[10] = Metabolic stability in human liver microsomes assessed as compound remaining; format: ADME, Microsome
[11] = AUCtot in CD-1 mouse at 3 mg/kg, po by LC/MS analysis; format: ADME, organism-based; design: time AUCmax, route oral, dose 3 mg/kg; conditions: in vivo
[12] = Permeability of compound at pH 7.4 by PAMPA assay; format: ADME; conditions: read-out: permeability
[13] = Metabolic stability in rat liver microsomes assessed as compound remaining; format: ADME, Microsome
[14] = Binding affinity to human neutrophil MPO delta (1-95) measured for 5 mins by SPR assay
[15] = Permeability of compound at pH 5.5 by PAMPA assay; format: ADME; conditions: read-out: permeability
[16] = molecular target: T5, Cytochrome P450 2C8 (Homo sapiens, UniProt P10632); experiment: Inhibition of CYP2C8 (unknown origin); format: ADME
T5 sequence (P10632 whole entry): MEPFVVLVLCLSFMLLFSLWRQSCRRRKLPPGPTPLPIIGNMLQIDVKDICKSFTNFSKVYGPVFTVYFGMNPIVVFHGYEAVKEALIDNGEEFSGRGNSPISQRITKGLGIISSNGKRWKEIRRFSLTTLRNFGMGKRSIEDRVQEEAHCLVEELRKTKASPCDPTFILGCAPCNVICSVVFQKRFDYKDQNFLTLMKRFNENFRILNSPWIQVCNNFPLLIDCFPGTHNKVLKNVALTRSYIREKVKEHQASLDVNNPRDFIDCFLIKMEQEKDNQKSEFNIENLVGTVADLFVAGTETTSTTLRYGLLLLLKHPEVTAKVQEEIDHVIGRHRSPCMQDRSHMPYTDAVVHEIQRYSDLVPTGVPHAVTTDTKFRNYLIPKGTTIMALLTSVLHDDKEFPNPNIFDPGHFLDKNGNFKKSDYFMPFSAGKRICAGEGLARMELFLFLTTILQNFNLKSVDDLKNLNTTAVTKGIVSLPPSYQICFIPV

[17] = molecular target: Cytochrome P450 2D6 (Homo sapiens, UniProt P10635); experiment: Inhibition of CYP2D6 (unknown origin); format: ADME
Chain of Cytochrome P450 2D6 (P10635 whole entry): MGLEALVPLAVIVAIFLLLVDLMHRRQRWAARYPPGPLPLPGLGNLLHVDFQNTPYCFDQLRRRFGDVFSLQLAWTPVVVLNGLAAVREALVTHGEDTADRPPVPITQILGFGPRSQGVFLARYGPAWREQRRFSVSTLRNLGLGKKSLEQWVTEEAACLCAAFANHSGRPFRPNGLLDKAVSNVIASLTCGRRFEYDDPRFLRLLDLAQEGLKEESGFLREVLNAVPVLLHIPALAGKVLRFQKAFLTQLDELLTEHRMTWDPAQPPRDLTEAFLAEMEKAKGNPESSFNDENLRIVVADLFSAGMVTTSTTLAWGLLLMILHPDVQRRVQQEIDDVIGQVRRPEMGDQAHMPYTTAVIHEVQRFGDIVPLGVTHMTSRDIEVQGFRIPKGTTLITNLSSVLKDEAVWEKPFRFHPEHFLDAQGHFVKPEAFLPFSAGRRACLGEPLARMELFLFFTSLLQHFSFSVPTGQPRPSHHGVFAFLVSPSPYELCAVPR

[18] = molecular target: T6, Myeloperoxidase (Mus musculus, UniProt P11247); experiment: Inhibition of PMA-induced MPO in mouse Neutrophil incubated for 3 mins by luminometry; format: tissue-based
T6 sequence (P11247 whole entry): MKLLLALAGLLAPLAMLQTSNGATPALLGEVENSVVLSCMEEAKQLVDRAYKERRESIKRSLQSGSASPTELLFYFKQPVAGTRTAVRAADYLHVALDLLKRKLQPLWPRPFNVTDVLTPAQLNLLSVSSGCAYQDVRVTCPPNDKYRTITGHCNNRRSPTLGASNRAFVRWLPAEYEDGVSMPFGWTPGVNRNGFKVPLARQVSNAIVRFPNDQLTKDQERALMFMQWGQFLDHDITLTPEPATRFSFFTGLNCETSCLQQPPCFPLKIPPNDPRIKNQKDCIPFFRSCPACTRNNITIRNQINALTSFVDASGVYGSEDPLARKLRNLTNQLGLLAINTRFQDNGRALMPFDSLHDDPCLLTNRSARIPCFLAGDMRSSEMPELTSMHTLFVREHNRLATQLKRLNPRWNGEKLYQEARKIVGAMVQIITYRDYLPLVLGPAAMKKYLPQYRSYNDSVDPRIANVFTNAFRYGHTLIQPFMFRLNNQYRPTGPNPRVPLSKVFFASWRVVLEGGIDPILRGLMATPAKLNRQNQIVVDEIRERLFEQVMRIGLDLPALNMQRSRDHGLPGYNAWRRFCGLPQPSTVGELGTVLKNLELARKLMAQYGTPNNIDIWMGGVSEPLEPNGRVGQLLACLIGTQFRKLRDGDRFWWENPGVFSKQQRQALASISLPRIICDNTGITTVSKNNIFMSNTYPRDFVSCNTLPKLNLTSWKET

half-life [1] [h] | inhibition (INH) [2] | IC50 [4] [µM] | IC50 [5] [µM] | Stabilty [6] [%] | IC50 [7] [µM] | IC50 [8] [µM] | pKa [9] | Stabilty [10] [%] | AUC [11] [µM·h] | Papp [12] [nm/s] | Stabilty [13] [%] | Papp [15] [nm/s] | IC50 [16] [µM] | IC50 [17] [µM] | IC50 [18] [µM] | Structure (SMILES) | Ka [3] | Kdiss [3] | Kd [14] [µM]
2.4 | Active | > 10 | > 10 | 80 | 0.103 | > 10 | 6.6 | 93 | 22.2 | 167 | 95 | 420 | > 10 | > 10 |  | Nc1nc(OCc2ccccc2)c2[nH]nnc2n1 | 1.3 10^3/M.s | 0.72 10^-3/s | 0.547
 |  |  |  |  |  |  |  |  |  |  |  |  |  |  | 32.5 | O=c1[nH]c(=S)n(C[C@H]2CCCO2)c2nc[nH]c12 |  |  | 
